# Where two headings read alike, the source gives them in different places.
# Legend:
# Format in all cases: cell-based
# SARS-CoV-2 [1] = experiment: Anti SARS-CoV-2 IC50 estimation by qRT-PCR in VeroE6 cells; conditions: Severe acute respiratory syndrome coronavirus 2, Vero C1008, 48 h
# [2] = Cytotoxicity by Hoechst 33342 / Sytox orange staining; conditions: African green monkey, Vero E6 cells
# Method: The assay was done in a 96 well plate format in 3 wells for each sample. 1×10e4 Vero E6 cells were plated per well and incubated at 37° C. overnight for monolayer formation. Next day, cells were incubated with the test substance (TS) at the indicated concentration with final DMSO concentration being 0.5%. The Control cells were incubated with 0.5% DMSO only. 24 and 48 hours later, cells were stained with Hoechst 33342 and Sytox orange dye. Images were taken at 10×, 16 images per well, which covers 90% of the well area using ImageXpress Microconfocal (Molecular Devices). Hoechst 33342 nucleic acid stain is a popular cell-permanent nuclear counterstain that emits blue fluorescence when bound to dsDNA. It stains all the live and dead cells. Sytox orange dye stains the nucleic acid in the cells with compromised membranes. This stain is an indicator of cell death. First, the software will count total number of cells in the Hoechst image. In the Sytox image, it will count, among Hoechst positive cells, how many cells are positive for Sytox.
# SARS-CoV-2 [3] = experiment: Antiviral screening by qRT-PCR in VeroE6 cells
structure (smiles),measurement,setting,value
"CCC(CC)COC(=O)[C@H](C)N[P@](=O)(OC[C@H]1O[C@@](C#N)(c2ccc3c(N)ncnn23)[C@H](O)[C@@H]1O)Oc1ccccc1 [Remdesivir, reference compound]",IC50,SARS-CoV-2 [1]; read-out: IC50 value (μM) E gene,0.15 µM
same,IC50,SARS-CoV-2 [1]; read-out: IC50 value (μM) N gene,0.11 µM
same,"viability at 24 h, 10 µM","[2]; 24 hours, read-out: % Cell viability 24 hours",99.2%
same,"viability at 48 h, 10 µM","[2]; 48 hours, read-out: % Cell viability 48 hours",94.4%
same,inhibition at 10 µM,"SARS-CoV-2 [3]; Severe acute respiratory syndrome coronavirus 2, Vero C1008, 24 h, read-out: % inhibition of virus replication 24 hours post infection E",82.4%
same,inhibition at 10 µM,"SARS-CoV-2 [3]; Severe acute respiratory syndrome coronavirus 2, Vero C1008, 24 h, read-out: % inhibition of virus replication 24 hours post infection N",80.3%
same,inhibition at 10 µM,"SARS-CoV-2 [3]; Severe acute respiratory syndrome coronavirus 2, Vero C1008, 48 h, read-out: % inhibition of virus replication 48 hours post infection E",99.8%
same,inhibition at 10 µM,"SARS-CoV-2 [3]; Severe acute respiratory syndrome coronavirus 2, Vero C1008, 48 h, read-out: % inhibition of virus replication 48 hours post infection N",99.9%
